What was measured:
[1] = molecular target: 5-hydroxytryptamine receptor 2A (Rattus norvegicus, UniProt P14842)
[2] = molecular target: T1, 5-hydroxytryptamine receptor 3A (Rattus norvegicus, UniProt P35563)
T1 sequence (P35563 whole entry): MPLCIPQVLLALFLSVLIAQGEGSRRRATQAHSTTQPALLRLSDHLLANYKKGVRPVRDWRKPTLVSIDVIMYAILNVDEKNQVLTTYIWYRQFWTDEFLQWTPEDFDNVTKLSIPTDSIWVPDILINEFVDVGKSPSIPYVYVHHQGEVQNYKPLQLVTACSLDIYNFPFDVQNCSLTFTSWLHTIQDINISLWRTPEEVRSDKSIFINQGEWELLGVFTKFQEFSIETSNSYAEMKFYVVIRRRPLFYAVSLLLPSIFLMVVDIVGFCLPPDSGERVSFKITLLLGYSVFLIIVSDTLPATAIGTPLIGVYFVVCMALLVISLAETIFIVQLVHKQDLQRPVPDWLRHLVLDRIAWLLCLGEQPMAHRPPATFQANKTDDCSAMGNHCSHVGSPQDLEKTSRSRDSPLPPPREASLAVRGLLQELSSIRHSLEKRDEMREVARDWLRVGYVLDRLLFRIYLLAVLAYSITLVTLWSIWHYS

[3] = molecular target: 5-hydroxytryptamine receptor 1B (Rattus norvegicus, UniProt P28564)
Sequence of 5-hydroxytryptamine receptor 1B (P28564 whole entry): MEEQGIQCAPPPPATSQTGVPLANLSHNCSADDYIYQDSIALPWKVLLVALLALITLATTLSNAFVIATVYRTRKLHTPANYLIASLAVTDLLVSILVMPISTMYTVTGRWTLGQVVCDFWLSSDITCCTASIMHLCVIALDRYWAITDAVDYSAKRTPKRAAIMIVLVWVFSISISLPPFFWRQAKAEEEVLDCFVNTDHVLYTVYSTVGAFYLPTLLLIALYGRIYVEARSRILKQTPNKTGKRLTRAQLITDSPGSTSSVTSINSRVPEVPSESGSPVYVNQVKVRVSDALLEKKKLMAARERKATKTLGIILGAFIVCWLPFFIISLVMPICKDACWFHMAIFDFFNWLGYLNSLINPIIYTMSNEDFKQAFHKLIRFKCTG

[4] = molecular target: 5-hydroxytryptamine receptor 1D (Rattus norvegicus, UniProt P28565)
Sequence of 5-hydroxytryptamine receptor 1D (P28565 whole entry): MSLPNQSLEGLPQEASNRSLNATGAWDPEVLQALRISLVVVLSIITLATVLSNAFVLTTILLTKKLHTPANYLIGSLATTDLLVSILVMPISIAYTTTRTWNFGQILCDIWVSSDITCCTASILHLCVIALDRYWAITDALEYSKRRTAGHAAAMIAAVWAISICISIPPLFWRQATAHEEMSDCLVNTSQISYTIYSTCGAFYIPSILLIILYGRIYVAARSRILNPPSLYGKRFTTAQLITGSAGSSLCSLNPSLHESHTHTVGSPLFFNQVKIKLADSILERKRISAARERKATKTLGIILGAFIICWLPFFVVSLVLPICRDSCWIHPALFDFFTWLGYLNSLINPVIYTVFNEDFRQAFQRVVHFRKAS

[5] = molecular target: 5-hydroxytryptamine receptor 6 (Rattus norvegicus, UniProt P31388)
Sequence of 5-hydroxytryptamine receptor 6 (P31388 whole entry): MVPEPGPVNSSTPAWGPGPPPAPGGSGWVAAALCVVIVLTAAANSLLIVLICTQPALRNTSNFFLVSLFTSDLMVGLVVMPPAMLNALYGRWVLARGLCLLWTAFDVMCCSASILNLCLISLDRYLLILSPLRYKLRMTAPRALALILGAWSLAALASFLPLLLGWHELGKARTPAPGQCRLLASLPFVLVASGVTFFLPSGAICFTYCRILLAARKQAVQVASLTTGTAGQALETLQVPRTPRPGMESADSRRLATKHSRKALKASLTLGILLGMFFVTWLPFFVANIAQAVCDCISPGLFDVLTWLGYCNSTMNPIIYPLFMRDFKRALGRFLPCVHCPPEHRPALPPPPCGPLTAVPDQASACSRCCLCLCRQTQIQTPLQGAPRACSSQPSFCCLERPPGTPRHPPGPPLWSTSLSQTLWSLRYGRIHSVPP

[6] = molecular target: 5-hydroxytryptamine receptor 7 (Rattus norvegicus, UniProt P32305)
Sequence of 5-hydroxytryptamine receptor 7 (P32305 whole entry): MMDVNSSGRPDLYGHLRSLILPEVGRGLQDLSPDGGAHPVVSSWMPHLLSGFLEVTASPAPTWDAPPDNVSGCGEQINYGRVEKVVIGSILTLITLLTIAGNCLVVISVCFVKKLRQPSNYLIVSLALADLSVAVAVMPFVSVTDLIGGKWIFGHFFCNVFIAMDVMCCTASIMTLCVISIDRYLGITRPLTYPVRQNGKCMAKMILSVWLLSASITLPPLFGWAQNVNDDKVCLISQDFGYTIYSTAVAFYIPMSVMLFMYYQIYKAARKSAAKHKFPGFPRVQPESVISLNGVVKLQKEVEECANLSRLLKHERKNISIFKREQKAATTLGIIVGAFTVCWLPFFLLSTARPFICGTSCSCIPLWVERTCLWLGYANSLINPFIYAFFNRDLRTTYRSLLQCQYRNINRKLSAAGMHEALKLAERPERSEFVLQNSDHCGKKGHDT

Sequence of 5-hydroxytryptamine receptor 2A (P14842 whole entry): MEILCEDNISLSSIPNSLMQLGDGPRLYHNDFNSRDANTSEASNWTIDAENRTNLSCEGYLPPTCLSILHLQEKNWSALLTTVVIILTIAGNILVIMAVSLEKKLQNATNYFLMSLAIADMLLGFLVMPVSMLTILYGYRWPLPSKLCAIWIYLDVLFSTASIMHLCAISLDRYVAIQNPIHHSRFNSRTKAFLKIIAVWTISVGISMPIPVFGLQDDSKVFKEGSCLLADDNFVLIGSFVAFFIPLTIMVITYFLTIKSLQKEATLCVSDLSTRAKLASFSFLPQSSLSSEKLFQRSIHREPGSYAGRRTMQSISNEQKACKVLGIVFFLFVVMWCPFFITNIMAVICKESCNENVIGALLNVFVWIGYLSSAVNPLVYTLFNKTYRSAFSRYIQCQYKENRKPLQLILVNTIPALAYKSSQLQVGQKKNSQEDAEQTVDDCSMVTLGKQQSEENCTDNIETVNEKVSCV

## Clc1cccc(N2CCNCC2)c1 [mCPP]
[1]
  Ki: 200 nM
[2]
  Ki: 100 nM
[3]
  Ki: 251 nM
[4]
  Ki: 1580 nM
[5]
  Ki: 2510 nM
[6]
  Ki: 251 nM

From BindingDB's records for doi:10.1046/j.1468-2982.2001.00157.x (Roche Bioscience, 2001)
